For data set [1] the following is noted: cited from earlier work.
Data set [2] has as its system endotoxin. The data set can be described thus: Comparison of allantoin and uric acid for removal of endotoxin from human IgG solution. Particulars: 1, 2 and 4% (w/v), 13,000 EU/ml, 6.7 mg/mL human IgG, 15 minutes. As to the method: Endotoxin was added to a 6.7 mg/mL solution of human IgG in 5 mM Hepes, 100 mM NaCl, pH 7.0 to a final concentration of 13,000 EU/ml. 1, 2 and 4% (w/v) of either allantoin or uric acid was added to aliquots of this mixture and allowed to mix for 15 minutes at room temperature. As a control, equal amounts of potato starch were added to a separate series. Finally, the reaction mixtures were clarified by centrifugation. Protein and endotoxin concentrations were measured to calculate antibody recovery and endotoxin removal. There was no reduction in endotoxin with the addition of starch. Uric acid produced a 4-fold reduction at all concentrations. Allantoin reduced endotoxin from 5-10-fold across the experiments (low to high). Antibody recovery was greater than 90% throughout. Besides the poorer performance of uric acid, the fact that results were unchanged as a function of the amount of uric acid are puzzling, and highlight allantoin as being a preferable ureide to begin with.

For a further data set, the system named is Attenuated Dengue virus. In words: Co-precipitation of attenuated Dengue virus with allantoin. To be noted: 7% allantoin, 600 mM NaCl, pH 6.0. As to the method: Attenuated Dengue virus was combined with 7% allantoin at 600 mM NaCl, pH 6.0. The supernatant was removed. The virus was recovered by dissolving the allantoin in 50 mM Hepes, pH 7.0. Recovery was estimated by immunoassay to be 70-80%.

Data set [3] deals with endotoxin. The data set can be described thus: Endotoxin removal during purification of a DNA plasmid from E. coli lysate. To be noted: 10% allantoin, 15 minutes. As to the method:
Powdered allantoin was added to a final concentration of 10% in a filtered E. coli lysate containing a DNA plasmid. The mixture was stirred for 15 minutes then the solid allantoin was removed by microfiltration. 96.7% of the endotoxin was removed with the allantoin. 80% of the DNA plasmid was recovered in the filtrate. […] From the results given in the previous Examples, it will be apparent to the person of ordinary skill, that in the case of plasmids produced in mammalian cells, allantoin treatment will offer the additional benefit of virus removal.

For data set [4], the system named is murine leukemia virus. The data set can be described thus: Co-precipitation of murine leukemia virus, infectivity testing of supernatant. Particulars: 10% allantoin, physiological conditions, 10^10 particles per mL. The text has this:
A viral culture containing 10^10 particles per mL of murine leukemia virus was coprecipitated under physiological conditions by addition of allantoin in an amount of 10%. Infectivity testing of the supernatant documented removal of 99.9% of the virus.

Data set [5] relates to murine leukemia virus. In words: Enhancement of virus inactivation at low pH, virus infectivity. To be noted: pH 4 plus 10% allantoin. The method, then: A cell culture supernatant containing about 10^10 particles of murine leukemia virus per mL was split into 10 aliquots. Half of the aliquots were treated by reduction of pH to 4 for the purpose of inactivating the virus. The other half was treated by the same reduction or pH plus the addition of 10% allantoin. Aliquots representing treatment at 1, 5, 10, 15, and 60 minutes were evaluated for virus infectivity. At 1 minute, inactivation absent allantoin was 1.2 logs versus 2.4 logs with allantoin. At 5 minutes, inactivation absent allantoin was 3.2 logs versus 4.5 logs with allantoin. At 10 minutes, inactivation absent allantoin was 4.3 logs versus 5.4 logs with allantoin. At 15 minutes, inactivation absent allantoin was 5.1 logs versus 5.6 logs with allantoin. At 60 minutes, inactivation absent allantoin was 5.4 logs versus 5.6 logs with allantoin. Since the sensitivity of the infectivity assay is about 5.5 logs, it is likely that the allantoin inclusion increases the level of inactivation at all time points, in addition to accelerating inactivation. It will be apparent to the person of skill in the art that combination of allantoin with other virus inactivation methods will likely have a similar enhancing effect.

In the next data set the test system is minute virus of mice. The data set can be described thus: Co-precipitation of minute virus of mice, infectivity testing of supernatant. To be noted: 10% allantoin, physiological conditions, 10^10 particles per mL. The source says:
A viral culture containing 10^10 particles per mL of minute virus of mice was coprecipitated under physiological conditions by addition of allantoin in an amount of 10%. Infectivity testing of the supernatant documented removal of 99.9% of the virus.

Data set [6] can be described thus: Allantoin plus ethacridine treatment of IgG cell culture harvest, then TREN / T-butyl column. Particulars: 1% allantoin with 0.01% ethacridine. As to the method:
Cell-containing mammalian cell culture harvest containing a monoclonal IgG was treated by allantoin affinity with 1% allantoin in combination with 0.01% ethacridine. The sample, at a pH of about 7.2 and a conductivity of about 13.5 mS, these conditions corresponding with so-called physiological conditions, was passed over a column packed chromatography media including equal amounts of the metal affinity ligand TREN (BioWorks TREN hi-sub) and a hydrophobic ligands (Macroprep T-butyl). Antibody recovery following the previous steps was 99%. DNA was reduced by 3.5 logs, and virus was reduced by 4-5 logs. In addition, the treated sample was sparking clear, with a turbidity of about 2.0 NTU, indicating near-total removal of particulates.
The form or example 15 was followed except increasing the amount of allantoin over the course of a series of experiments, including 2%, 4%, and 8%. Antibody recovery decreased in a roughly linear fashion in inverse proportion to the amount of allantoin. Whereas recovery at 1% (example 15) was 99%, recovery at 8% was about 87%.
IgG processed as described in examples 15 and 16 was analyzed by size exclusion chromatography. […] Where aggregate content following example 15 was about 5%, it was reduced to about 1.3% at 8% allantoin. Aggregate content of membrane clarified cell harvest lacking allantoin was about 19%. […]

For data set [7], the system named is endotoxin. The data set can be described thus: Endotoxin reduction from an ovalbumin solution. To be noted: start about 50 EU/mL. The method, then: A sample of ovalbumin in 50 mM phosphate, 100 mM NaCl, pH 7.2, contaminated with about 50 EU/mL of endotoxin, was saturated with 3% allantoin, incubated for 15 minutes, following which the precipitate was removed by membrane filtration. Endotoxin content of the supernatant was reduced by more than 95%, to less than 2 EU per mL. The experiment was repeated with 10% allantoin.

Data set [8] is described as follows: Cell culture harvest treated with allantoin and ethacridine, then iminodiacetic acid / TREN / butyl particle assembly. To be noted: 1% allantoin, 0.025% ethacridine. As to the method:
1 L of cell culture harvest was treated by addition of 1% allantoin and 0.025% ethacridine and incubated stirring for 15 minutes, after which the cells and other particulates were removed by centrifugation. The supernatant was passed through an assembly containing equal proportions of styrene divinylbenzene particles substituted with iminodiacetic acid, agarose particles substituted with TREN, and acrylate particles substituted with butyl residues, with a combined volume of 50 mL, dimensions of 2.6×10 cm, and a flow rate of 25 mL/min. Initial aggregate content of greater than 12% was reduced to less than 0.1%. Excess ethacridine was removed. Host protein contamination was reduced 60%. DNA, as measured by qPCR was reduced by 6 logs. Antibody recovery was 99%.

The next data set relates to Bacteriophage M13. The data set can be described thus: Co-precipitation of bacteriophage M13 from phage cell culture supernatant with allantoin. The method, then: Phage cell culture supernatant was co-precipitated by addition of allantoin at a weight to volume ratio of 7%. pH was about 7.0. Conductivity was 20 mS. The virus was recovered by dissolving the allantoin in 50 mM Hepes, 150 mM NaCl, pH 7.0. Phage recovery was about 70%. Greater than 99% of proteins and small molecule contaminants were eliminated with the supernatant.
Example 1 was repeated at pH values of 5.0, 6.0, and 8.0% allantoin.
Example 1 was repeated at NaCl concentrations corresponding to conductivity values of 40, 60, 80, and 100 mS/cm. These salt concentrations correspond with about 400, 600, 800, and 1000 mM NaCl. […] Optimal co-precipitation occurred at 400 mM NaCl. This was interpreted to reflect suppression of mutual electrostatic repulsion among viral particles with the result of supporting higher packing density of the particles on the ureide surface.
Example 1 was repeated with 3%, 5%, and 10% allantoin. Co-precipitation efficiency, as judged by removal from supernatant, was directly correlated with allantoin concentration. Recovery increased from about 31% to 57% to 91% respectively.
Phage cell culture supernatant was precipitated with 7% allantoin at 400 mM NaCl, pH 6.0. The majority of proteins and small molecule contaminants were eliminated with the supernatant. Recovery was estimated to be in excess of 90%. […]

In data set [9] the test system is endotoxin. In words: Antibody recovery and endotoxin reduction from an IgG-endotoxin mixture. As to the method:
Endotoxin was added to 1 mg/mL human IgG in 5 mM HEPES 100 mM NaCl pH 7.0 to 22,000 EU/ml. 2% (w/v) allantoin were added to aliquots of this mixture and allowed to mix for 15 minutes at room temperature. The suspension was clarified by centrifugation. Protein and endotoxin concentrations were measured to calculate antibody recovery and endotoxin removal. 2% (w/v) allantoin reduced endotoxin twofold. Antibody recovery was unaffected by the amount of allantoin. In a subsequent series of experiments, the amount of allantoin was increased in increments, up to 10%. Antibody recovery diminished gradually to about 93% at 10% allantoin, while endotoxin removal efficiency increased to about 99%. These experiments illustrate that the use of excessive amounts of allantoin can result in a loss of some proteins. In such cases, the person of skill in the art can make an informed decision as to the most productive balance of endotoxin removal versus protein recovery, and adjust the availability of the solid phase ureide accordingly. Additional experiments with proteins ranging in size from about 12 kDa to 1 MDa indicated a definite trend whereby the loss of protein increases with increasing protein size.

In data set [10] the test system is purified DNA from salmon sperm. In words: Treatment of purified DNA with allantoin. Particulars: antibody-containing protein preparations, previous examples. The method, then:
A 1 mg/mL preparation of purified DNA from salmon sperm was treated with 5% allantoin. More than 95% of the DNA remained soluble in the supernatant. This highlights the utility of separating virus or endotoxin contaminants from DNA preparations, such as plasmid preparations, which is otherwise extremely difficult because all three bind strongly to electropositive surfaces such as anion exchangers. […] The apparent discrepancy appears to be resolved by allantoin having little or no inherent affinity for DNA, but a very high affinity for DNA associated with other molecule, especially including DNA-compaction proteins or other compound associations of DNA with chromosomal substructures particularly including nucleosomes and their prokaryotic analogues. This further highlights the point that applications to purification of polynucleotides will likely benefit in particular from being conducted at high salt concentrations and/or the presence of organic modulators that discourage nonspecific formation of polynucleotide complexes with contaminants.

Consider `O=C1CNC(=O)N1` [hydantoin], for which the “solubility relative to allantoin” value in data set [1] (times more soluble than allantoin) is recorded as “roughly 10 times”.

As to `O=c1[nH]c(=O)c2[nH]c(=O)[nH]c2[nH]1` [uric acid], the reduction in endotoxin in the data set on endotoxin [2] is given as 4 fold.

On to `NC(=O)NC1NC(=O)NC1=O` (stereo not drawn) [allantoin], for which the “Host protein contamination reduced by” value in the data set on Attenuated Dengue virus was found to be 99.3%. Besides, the “endotoxin removed with the allantoin” value in the data set with endotoxin [3] was 96.7%. Also, the “removal of the virus (infectivity testing of supernatant)” value in the data set on murine leukemia virus [4] and in the data set on minute virus of mice was 99.9% in each case. The virus inactivation is 2.4 logs in the data set with murine leukemia virus [5] (1 minute); 4.5 logs in the data set on murine leukemia virus [5] (5 minutes); 5.4 logs in the data set with murine leukemia virus [5] (10 minutes); 5.6 logs in the data set on murine leukemia virus [5] (15 minutes); 5.6 logs with murine leukemia virus [5] (60 minutes). In addition, the “DNA reduced by” value in [6] is 3.5 logs. In data set [6], the “virus reduced by” value is on record as 4-5 logs. The “Endotoxin content of the supernatant reduced by” value in the data set on endotoxin [7] (3% allantoin, 15 minutes) was “more than 95%”. Further, the “Endotoxin reduced by” value with endotoxin [7] (10% allantoin) is “more than 99.5%”. In addition, the “DNA as measured by qPCR reduced by” value in data set [8] was 6 logs. Further, in data set [8], the “Host protein contamination reduced” value is 60%. In the data set with Bacteriophage M13 (5% allantoin, pH about 7.0, about 15 mS), the “virus eliminated in the precipitate” value was “About 60%”. In addition, the “proteins and small molecule contaminants eliminated with the supernatant” value in the data set with Bacteriophage M13 (7% allantoin, pH about 7.0, 20 mS) is given as “Greater than 99%”. Moreover, the endotoxin reduction entry in the data set with endotoxin [9] (2% (w/v) allantoin, 22,000 EU/ml, 1 mg/mL human IgG, 15 minutes) is “twofold”. Besides, the endotoxin removal efficiency result with endotoxin [9] (10% allantoin) is given as “about 99%”. Besides, the saturation concentration entry in data set [1] (aqueous solutions) is recorded as “about 36 mM”. The reduction in endotoxin in the data set on endotoxin [2] was 5-10 fold. In addition, in data set [10], the “DNA levels reduced by” value is on record as 98 to 99%.

Values taken from patent US9637724B2, “Selective binding of biological targets to solid phase ureides” (AGENCY FOR SCIENCE, TECHNOLOGY AND RESEARCH, priority 2012, dated 2017).
